Assay results taken from patent US9695155B2, “Herbicidal substituted pyrimidinyloxy benzene compounds” (E. I. DU PONT DE NEMOURS AND COMPANY, priority 2013, dated 2017).

How the values were obtained:
[1] = system: speedwell; experiment: Test D postemergence; type: in vivo, Veronica persica
Excerpt: (§1) Seeds of plant species selected from bluegrass (annual bluegrass, Poa annua), blackgrass (Alopecurus myosuroides), canarygrass (littleseed canarygrass, Phalaris minor), chickweed (common chickweed, Stellaria media), galium (catchweed bedstraw, Galium aparine), bromegrass, downy (downy bromegrass, Bromus tectorum), field poppy (Papaver rhoeas), field violet (Viola arvensis), green foxtail (Setaria viridis), deadnettle (henbit deadnettle, Lamium amplexicaule), Italian ryegrass (Lolium multiflorum), kochia (Kochia scoparia), lambsquarters (Chenopodium album), oilseed rape (Brassica napus), pigweed (Amaranthus retroflexus), chamomile (scentless chamomile, Matricaria inodora), Russian thistle (Salsola kali), speedwell (bird's-eye speedwell, Veronica persica), spring barley (Hordeum vulgare), spring wheat (Triticum aestivum), wild buckwheat (Polygonum convolvulus), wild mustard (Sinapis arvensis), wild oat (Avena fatua), wild radish (Raphanus raphanistrum), windgrass (Apera spica-venti), winter barley (Hordeum vulgare), and winter wheat (Triticum aestivum) were planted into a silt loam soil and treated preemergence with test chemicals formulated in a non-phytotoxic solvent mixture which included a surfactant.
(§2) At the same time, these species were planted in pots containing Redi-Earth® planting medium (Scotts Company, 14111 Scottslawn Road, Marysville, Ohio 43041) comprising spaghnum peat moss, vermiculite, wetting agent and starter nutrients and treated with postemergence applications of the test chemicals formulated in the same manner. Plants ranged in height from 2 to 18 cm (1- to 4-leaf stage). Treated plants and controls were maintained in a controlled growth environment for 7 to 21 days after which time all species were compared to controls and visually evaluated. Plant response ratings, summarized in Table D, are based on a scale of 0 to 100 where 0 is no effect and 100 is complete control. A dash (-) response means no test result.

[2] = system: bluegrass; experiment: Test D preemergence; type: in vivo, Poa annua
Excerpt: as §1, §2

[3] = system: field violet; experiment: Test D postemergence; type: in vivo, Viola arvensis
Excerpt: as §1, §2

[4] = system: deadnettle; experiment: Test D postemergence; type: in vivo, Lamium amplexicaule
Excerpt: as §1, §2

[5] = system: bromegrass, downy; experiment: Test D postemergence; type: in vivo, Bromus tectorum
Excerpt: as §1, §2

[6] = system: kochia; experiment: Test D postemergence; type: in vivo, Kochia scoparia
Excerpt: as §1, §2

[7] = system: green foxtail; experiment: Test D preemergence; type: in vivo, Setaria viridis
Excerpt: as §1, §2

[8] = system: field poppy; experiment: Test D postemergence; type: in vivo, Papaver rhoeas
Excerpt: as §1, §2

[9] = system: chamomile; experiment: Test D postemergence; type: in vivo, Matricaria inodora
Excerpt: as §1, §2

[10] = system: wild radish; experiment: Test D postemergence; type: in vivo, Raphanus raphanistrum
Excerpt: as §1, §2

[11] = system: oilseed rape; experiment: Test D preemergence; type: in vivo, Brassica napus
Excerpt: as §1, §2

[12] = system: wild mustard; experiment: Test D postemergence; type: in vivo, Sinapis arvensis
Excerpt: as §1, §2

[13] = 31 g ai/ha, scale 0 to 100 (0 no effect, 100 complete control)
[14] = 62 g ai/ha, scale 0 to 100 (0 no effect, 100 complete control)
[15] = 125 g ai/ha, scale 0 to 100 (0 no effect, 100 complete control)
[16] = 250 g ai/ha, scale 0 to 100 (0 no effect, 100 complete control)
[17] = 16 g ai/ha, scale 0 (no effect) to 100 (complete control)

Clc1cnc(Oc2ccccc2-n2cc(Cl)cn2)nc1 [Compound 3]
Plant response rating, Speedwell ([1]; 16 g ai/ha, scale 0-100): 60
Plant response rating, Speedwell [1, 13]: 30
Plant response rating, Speedwell [1, 14]: 45
Plant response rating, Speedwell [1, 15]: 60
Plant response rating, Speedwell [1, 16]: 75
Plant response rating, Bluegrass [2, 17]: 0
Plant response rating, Bluegrass ([2]; 31 g ai/ha, scale 0-100): 0
Plant response rating, Bluegrass ([2]; 62 g ai/ha, scale 0-100): 0
Plant response rating, Bluegrass ([2]; 125 g ai/ha, scale 0-100): 20
Plant response rating, Bluegrass ([2]; 250 g ai/ha, scale 0-100): 40
Plant response rating, Field Violet ([3]; 16 g ai/ha, scale 0-100): 20
Plant response rating, Field Violet [3, 13]: 5
Plant response rating, Field Violet [3, 14]: 5
Plant response rating, Field Violet [3, 15]: 5
Plant response rating, Field Violet [3, 16]: 20
Plant response rating, Deadnettle ([4]; 16 g ai/ha, scale 0-100): 10
Plant response rating, Deadnettle [4, 13]: 10
Plant response rating, Deadnettle [4, 14]: 10
Plant response rating, Deadnettle [4, 15]: 10
Plant response rating, Deadnettle [4, 16]: 20
Plant response rating, Bromegrass, Downy ([5]; Postemergence, 62 g ai/ha, scale 0 to 100 (0 no effect, 100 complete control)): 0
Plant response rating, Bromegrass, Downy ([5]; Postemergence, 31 g ai/ha, scale 0 to 100 (0 no effect, 100 complete control)): 0
Plant response rating, Bromegrass, Downy ([5]; Postemergence, 125 g ai/ha, scale 0 to 100 (0 no effect, 100 complete control)): 0
Plant response rating, Bromegrass, Downy ([5]; Postemergence, 250 g ai/ha, scale 0 to 100 (0 no effect, 100 complete control)): 0
Plant response rating, Bromegrass, Downy ([5]; postemergence, 16 g ai/ha, scale 0 to 100, 0 no effect, 100 complete control): 50
Plant response rating, Kochia ([6]; 16 g ai/ha, scale 0-100): 20
Plant response rating, Kochia [6, 13]: 5
Plant response rating, Kochia [6, 14]: 5
Plant response rating, Kochia [6, 15]: 25
Plant response rating, Kochia [6, 16]: 55
Plant response rating, Foxtail, Green [7, 17]: 10
Plant response rating, Foxtail, Green ([7]; 62 g ai/ha, scale 0-100): 10
Plant response rating, Foxtail, Green ([7]; 125 g ai/ha, scale 0-100): 10
Plant response rating, Foxtail, Green ([7]; 250 g ai/ha, scale 0-100): 30
Plant response rating, Field Poppy ([8]; 16 g ai/ha, scale 0-100): 10
Plant response rating, Field Poppy [8, 13]: 0
Plant response rating, Field Poppy [8, 14]: 0
Plant response rating, Field Poppy [8, 16]: 0
Plant response rating, Chamomile ([9]; 16 g ai/ha, scale 0-100): 0
Plant response rating, Chamomile [9, 13]: 0
Plant response rating, Chamomile [9, 14]: 0
Plant response rating, Chamomile [9, 15]: 0
Plant response rating, Chamomile [9, 16]: 0
Plant response rating, Radish, Wild ([10]; 16 g ai/ha, scale 0-100): 70
Plant response rating, Radish, Wild [10, 13]: 30
Plant response rating, Radish, Wild [10, 14]: 40
Plant response rating, Radish, Wild [10, 15]: 50
Plant response rating, Radish, Wild [10, 16]: 75
Plant response rating, Oilseed Rape [11, 17]: 10
Plant response rating, Oilseed Rape ([11]; 31 g ai/ha, scale 0-100): 75
Plant response rating, Oilseed Rape ([11]; 62 g ai/ha, scale 0-100): 70
Plant response rating, Oilseed Rape ([11]; 125 g ai/ha, scale 0-100): 100
Plant response rating, Oilseed Rape ([11]; 250 g ai/ha, scale 0-100): 100
Plant response rating, Mustard, Wild ([12]; 16 g ai/ha, scale 0-100): 75
Plant response rating, Mustard, Wild [12, 13]: 20
Plant response rating, Mustard, Wild [12, 14]: 35
Plant response rating, Mustard, Wild [12, 15]: 35
Plant response rating, Mustard, Wild [12, 16]: 85
